In experiment [1] the test system is Jurkat FADD-deficient I 2.1 cell line. The experiment can be described thus: Cell-based screening: necroptosis induced by TNF-α in Jurkat FADD-deficient cells, MTS viability assay. The conditions noted are these: for EC50: Homo sapiens, Jurkat FADD-deficient cells, TNF-α 10 ng/ml, 24 hours, MTS viability assay; for inhibition of necroptosis induced by TNF-α: human T lymphocyte, Jurkat FADD deficient cell line. Further details: species or system human. From the text:
(§1) TNF-α can induce necroptosis in Jurkat cells (human T lymphocytes) when FADD was deleted. This model was used to screen various libraries of chemical compounds for characterization of new inhibitors of cellular necroptosis. Details on this cell-based assay can be found in Miao and Degterev (Methods Mol. Biol. 2009, 559, 79-93). The Jurkat FADD-deficient I 2.1 cell line used was purchased from ATCC and was maintained in RPMI 1640 medium (Gibco) containing Glutamax and 15% fetal calf serum (Life Technology). Necroptosis was induced by addition of 10 ng/ml of human recombinant TNF-α (Life Technology). Necrostatin-1 (Nec-1, Enzo Life Sciences) was used as model necroptosis inhibitor. Cells were maintained in 75 cm^2 flask and passed every 2 or 3 days. Chemical collections analysed were formatted in 96-well plates with 80 molecules per plates at 10 mM in 100% DMSO. For each collection plate, 2 cell plates were seeded (one necroptosis-induced with TNF-α and the other without TNF-α). Cells were seeded at 20000 cells/well, in 40 μl of medium, in a 96-well clear, flat bottom plate (CytoOne, Starlab) before treatment. Then, 40 μl of medium with or without TNF-α at 25 ng/ml were added to all wells in the corresponding plate. Immediately after TNF-α addition, 20 μl of diluted compound at 50 μM were added to the plates. Final concentration of each chemical compound was 10 μM at 0.1% DMSO. Four positives (Nec-1 at 10 μM final) and four negative (DMSO) controls were used in each plate to validate the assay. Cells were incubated at 37° C., 5% CO2 for 24 hours before performing MTS viability assay, described hereafter. Compounds were diluted before to treat cells. Liquid handling was performed using the Nimbus Microlab liquid handler (Hamilton Robotics) under microbiological safety workbench. The 10 mM compounds were diluted at 50 μM directly in cell medium.

In experiment [2] the test system is L929sAhFas. The experiment can be described thus: Necroptosis induced by FasL + zVAD-fmk in L929sAhFas cells. The class given is cell-based. The conditions noted are these: Mus musculus. The procedure: (§2) Besides, the EC50 of compound 7, compound 10 and necrostatin-1 (Nec-1) were determined in mouse or human cellular models of necroptosis induced by FasL+zVAD-fmk (a pan-caspase inhibitor), TRAIL+zVAD-fmk+Bp (Birinapant, a Smac mimetics) or TNF, and by using two cytotoxic assays (MTS Cell Proliferation assay or intracellular ATP level).

Experiment [3] relates to HT29. Briefly: Necroptosis induced by TRAIL + zVAD-fmk + Bp (Birinapant) in HT29 cells. Format: cell-based, human. The conditions noted are these: for anti-necroptotic effect by inducer (in words, summary of Table 1): TNF-, TRAIL- or FasL-induced necroptosis in mouse or human cellular models; for EC50: Homo sapiens, HT-29, HT29, TRAIL + Zvad + Bp. The procedure: as §2
The subject of experiment [4] is Jurkat Fadd−/−. The experiment can be described thus: Necroptosis induced by TNF in Jurkat Fadd−/− cells (Table 1). The conditions noted are these: Homo sapiens. The class given is cell-based.
Excerpt: as §1, §2

Experiment [5] addresses T1, Human RIPK1 full length GST-tagged (Homo sapiens, UniProt Q13546).
T1 construct: Human RIPK1 full length GST-tagged was baculovirally expressed in Sf9 cells; GST; made in house; host or cells: Sf9 insect cells (baculovirus, Bac-to-Bac expression system, Invitrogen)
T1 sequence (Q13546 1-671): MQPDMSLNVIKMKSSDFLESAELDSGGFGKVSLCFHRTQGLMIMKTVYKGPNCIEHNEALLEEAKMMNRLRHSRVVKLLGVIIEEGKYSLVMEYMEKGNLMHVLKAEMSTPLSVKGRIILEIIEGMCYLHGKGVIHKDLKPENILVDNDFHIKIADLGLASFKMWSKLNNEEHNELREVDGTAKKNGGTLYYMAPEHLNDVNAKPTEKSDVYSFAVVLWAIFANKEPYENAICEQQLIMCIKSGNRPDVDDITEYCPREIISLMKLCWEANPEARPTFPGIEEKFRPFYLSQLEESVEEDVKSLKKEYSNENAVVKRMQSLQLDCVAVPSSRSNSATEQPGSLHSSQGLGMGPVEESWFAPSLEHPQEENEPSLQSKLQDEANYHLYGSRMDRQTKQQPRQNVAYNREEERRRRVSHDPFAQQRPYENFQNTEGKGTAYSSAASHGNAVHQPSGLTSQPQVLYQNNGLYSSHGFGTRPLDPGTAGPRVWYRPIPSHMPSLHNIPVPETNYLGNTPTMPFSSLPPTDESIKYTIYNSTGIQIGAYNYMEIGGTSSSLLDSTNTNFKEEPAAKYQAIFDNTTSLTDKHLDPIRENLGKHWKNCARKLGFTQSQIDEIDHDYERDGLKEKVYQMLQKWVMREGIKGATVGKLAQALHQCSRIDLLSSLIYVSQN
Briefly: RIPK1 autophosphorylation assay. The conditions noted are these: [γ-32P] ATP, radiographic film, FIG. 5. The class given is biochemical. As for the experimental part:
RIPK1 Autophosphorylation Assay: Human RIPK1 full length GST-tagged was baculovirally expressed in Sf9 cells according to manufacturer's instructions (Bac-to-Bac expression system, Invitrogen) and purified using gluthation-sepharose beads (GE Healthcare). The elution was made in 50 mM Tris-HCl, pH 8.0 buffer supplemented with 30 mM reduced gluthatione (Sigma). The protocol used to detect the enzymatic activity is adapted from Miao and Degterev (Methods Mol. Biol. 2009, 559, 79-93). Kinase reaction was initiated mixing 5 μl of eluted RIPK1, 5 μl of 3× kinase reaction buffer (5 mM MOPS pH 7.2, 2.5 mM β-glycerophosphate, 4 mM MgCl2, 2.5 mM MnCl2, 1 mM EGTA, 0.4 mM EDTA, 50 μg/ml BSA, 0.05 mM DTT), 2 μl H2O and 3 μl of the tested molecule. The mixture was kept on ice for 10 minutes. During the incubation, the ATP solution was prepared by mixing 5 μl of 3× kinase reaction buffer, 4 μl H2O, 6 μl cold ATP at 150 μM and 2 μCi of [γ-^32P] ATP. Add the ATP solution and the tested inhibitor to the kinase and incubate for 30 minutes at 30° C. To stop the enzymatic reaction, 5 μl of loading buffer were added and solution was heated for 3 minutes at 95° C. 25 μl of each reaction were loaded per well in pre-cast NuPage 12% Bis-Tris gel (Life Technology). Autophosphorylated RIPK1 band was visualized on radiographic film after 6 h exposition at −80° C.

Where [6] appears, read: MTS Cell Proliferation assay, read-out: EC50, MTS.
Setting [7] is: intracellular ATP level, read-out: EC50, ATP level.

“Also recorded” adds a separate entry of the source. Like-named read-outs stand apart in the source and are kept apart here.

Consider eleven compounds from patent US10457678B2, “Substituted pyrrolo[2,3-b]pyridines as inhibitors of cellular necroptosis” (Institut National de la Sante et de la Recherche Medicale …, priority 2015, dated 2019).

Take `CCOc1ccc(-c2cc3cccn(C(=O)N(CC)CC)c-3n2)cc1` [Compound 7, 2-(4-ethoxyphenyl)-N,N-diethyl-7H-pyrrolo[2,3-b]pyridine-7-carboxamide]: the EC50 in experiment [1] came out at 7 µM; in experiment [2] (setting [6]), 10 µM; in experiment [2] (setting [7]) it was 5 µM; in experiment [4] (setting [6]) it was 10 µM; in experiment [4] (setting [7]), 9.3 µM. Also, the “inhibition of necroptosis induced by TNF-α” value (“inhibition … by TNF-α” for short) in experiment [1] was “dose-dependent inhibition”. The “anti-necroptotic effect by inducer (in words, summary of Table 1)” value in experiment [3] is recorded as “only inhibits TNF- or FasL-induced necroptosis”.

In the case of `CCOc1ccc(-c2cc3cccnc3n2C(C)=O)cc1` [Compound 10, 1-(2-(4-ethoxyphenyl)-1H-pyrrolo[2,3-b]pyridin-1-yl)ethan-1-one], the concentration giving a half-maximal response (EC50) in experiment [1] turned out to be 1.7 µM; in experiment [2] (setting [6]), 3.5 µM; in experiment [2] (setting [7]), 5 µM; in experiment [3] (setting [6]) it was 4 µM; in experiment [3] (setting [7]), 5 µM; in experiment [4] (setting [6]), 4 µM. The half-maximal effective concentration (EC50) in experiment [4] (setting [7]) was 2.6 µM. The “inhibition … by TNF-α” value in experiment [1] is reported as “dose-dependent inhibition”. The “anti-necroptotic effect by inducer (in words, summary of Table 1)” value in experiment [3] is recorded as “inhibits TNF-, TRAIL- or FasL-induced necroptosis”. The “inhibition of RIPK1 autophosphorylation (in words)” value in experiment [5] was “dose-dependent inhibition; also recorded: inhibits, in a dose-dependent fashion”.

`CCOc1ccc(-c2cc3cccnc3n2C(=O)OC(C)(C)C)cc1` [Compound 17, tert-butyl 2-(4-ethoxyphenyl)-1H-pyrrolo[2,3-b]pyridine-1-carboxylate]: in experiment [1], the response was half-maximal at 3 µM (EC50) and the “inhibition … by TNF-α” value is “dose-dependent inhibition”.

Turning to `CCOc1ccc(-c2cc3cccn(C(=O)OCc4ccccc4)c-3n2)cc1` [Compound 21, benzyl 2-(4-ethoxyphenyl)-7H-pyrrolo[2,3-b]pyridine-7-carboxylate], in experiment [1], the EC50 is 5 µM and the “inhibition … by TNF-α” value is given as “dose-dependent inhibition”.

On to `CCOc1ccc(-c2cc3c(Cl)ccnc3n2C(=O)OC(C)(C)C)cc1` [Compound 26, tert-butyl 4-chloro-2-(4-ethoxyphenyl)-1H-pyrrolo[2,3-b]pyridine-1-carboxylate], for which, in experiment [1], the response was half-maximal at 2.4 µM (EC50) and the “inhibition … by TNF-α” value is reported as “dose-dependent inhibition”.

Take `CCOc1ccc(-c2cc3cccnc3n2C(=O)OCC(Cl)(Cl)Cl)cc1` [Compound 32, 2,2,2-trichloroethyl 2-(4-ethoxyphenyl)-1H-pyrrolo[2,3-b]pyridine-1-carboxylate]: in experiment [1], the midpoint of the response, the EC50, lay at 2.5 µM and the “inhibition … by TNF-α” value was “dose-dependent inhibition”.

With `CCOc1ccc(-c2cc3cccnc3n2C(=O)N2CCN(S(C)(=O)=O)C2=O)cc1` [Compound 33, 1-(2-(4-ethoxyphenyl)-1H-pyrrolo[2,3-b]pyridine-1-carbonyl)-3-(methylsulfonyl) imidazolidin-2-one], in experiment [1], the concentration for a half-maximal effect (EC50) was 1 µM and the “inhibition … by TNF-α” value is reported as “dose-dependent inhibition”.

Consider `CCOc1ccc(-c2cc3cccn(C(=O)N(C(C)C)C(C)C)c-3n2)cc1` [Compound 34, 2-(4-ethoxyphenyl)-N,N-diisopropyl-7H-pyrrolo[2,3-b]pyridine-7-carboxamide], for which, in experiment [1], a half-maximal effect (EC50) was put at 2 µM and the “inhibition … by TNF-α” value is “dose-dependent inhibition”.

`CCOc1ccc(-c2cc3cccn(C(=O)N4CCCC4)c-3n2)cc1` [Compound 35, (2-(4-ethoxyphenyl)-7H-pyrrolo[2,3-b]pyridin-7-yl)(pyrrolidin-1-yl)methanone]: in experiment [1], the EC50 was determined as 3.5 µM and the “inhibition … by TNF-α” value was “dose-dependent inhibition”.

On to `CCOc1ccc(-c2cc3cccn(C(=O)N4CCN(C)CC4)c-3n2)cc1` [Compound 36, (2-(4-ethoxyphenyl)-7H-pyrrolo[2,3-b]pyridin-7-yl) (4-methylpiperazin-1-yl)methanone], for which, in experiment [1], it took 1.05 µM to reach a half-maximal effect (EC50) and the “inhibition … by TNF-α” value is given as “dose-dependent inhibition”.

On to `CN1C(=O)C(Cc2c[nH]c3ccccc23)NC1=S` (stereo not drawn) [Nec-1, necrostatin-1, reference compound], for which the concentration giving a half-maximal response (EC50) was 10 µM in experiment [2] (setting [6]); 10 µM in experiment [2] (setting [7]); 1.2 µM in experiment [3] (setting [6]); 2 µM in experiment [3] (setting [7]); 1.3 µM in experiment [4] (setting [6]); 1.3 µM in experiment [4] (setting [7]).
